{"source": "patent EP0409862B1", "about": "“TOPICAL PREPARATIONS” (Seton Healthcare Group plc, priority 1988, dated 1989)", "origin": "cited, not measured here", "data": [{"smiles": "COC1=CC(=O)C[C@@H](C)[C@]12Oc1c(Cl)c(OC)cc(OC)c1C2=O", "note": "[Griseofulvin]", "values": [{"measurement": "solubility in various organic liquids such as alcohols", "value": "soluble"}, {"measurement": "solubility in water", "setting": "fine powder", "value": "essentially insoluble"}]}]}
